Experimental data from PMC6981581, “N-(2-Arylmethylthio-4-Chloro-5-Methylbenzenesulfonyl)amide Derivatives as Potential Antimicrobial Agents—Synthesis and Biological Studies” (International Journal of Molecular Sciences, 2019).
Values after ≈ are worked out from the molar mass of the structure shown. Values joined by “and” are separate entries in the source; they are usually repeats but may differ in a detail not shown here. Equal entries are not always repeated. Where two headings read alike, the source gives them in different places.

Key:
[1] = system: Staphylococcus aureus ATCC 43300 (MRSA); experiment: Broth dilution MIC/MBC, reference strain; type: cell-based
Experimental: (§1) The tests were carried out using a serial dilution method, allowing the determination of MIC (minimal concentration inhibiting bacterial growth), MBC (minimal bactericidal concentration), and MFC (minimal fungicidal concentration) values.
(§2) Antimicrobial activity was tested using the following reference strains: Staphylococcus aureus ATCC 6538 (MSSA), Staphylococcus aureus ATCC 43300 (MRSA), Staphylococcus epidermidis PCM 2118, Escherichia coli ATCC 11229, Pseudomonas aeruginosa ATCC 15442, Proteus vulgaris NCTC 4635, Enterococcus faecalis ATCC 11420, and Candida albicans ATCC 10231.
(§3) A broth dilution method was used to determine minimal inhibitory concentration (MIC) for tested compounds as recommended by Clinical Laboratory Standards Institute (CLSI) guidelines. Investigated compounds were diluted in Mueller Hinton Broth 2 (Sigma-Aldrich Co., St. Louis, MO, USA) in polypropylene 96-well plates and initial inoculum 5 × 10^5 cfu/mL were incubated at 37 °C for 18 h. MIC was taken as the lowest drug concentration at which an observable growth was inhibited. […] The loopful (10 µL) of the tested sample was transferred to Tryptic Soy Agar (TSA, Becton-Dickinson, Franklin Lakes, NJ, USA) and incubated at 37 °C for 48 h. […] Drug Solutions were made fresh on the day of the assay. All experiments were performed in triplicate.

[2] = system: Staphylococcus epidermidis PCM 2118; experiment: Broth dilution MIC/MBC, reference strain; type: cell-based
Experimental: as §1, §2, §3

S.aureus 50 (MRSA) = experiment: Broth dilution MIC/MBC, clinical MRSA isolate; type: cell-based; conditions: Staphylococcus aureus, clinical MRSA S.aureus 50
Excerpt: (§4) […]. Both MRSA and MSSA strains were derived from various human infections.
(§5) […]. Five methicillin-resistant S. aureus strains were isolated from nose (n = 1), bronchoalveolar lavage (n = 1), sputum (n = 1), wound (n = 1), and blood (n = 1); five methicillin-susceptible S. aureus strains were isolated from throat (n = 1), bronchoalveolar lavage (n = 1), sputum (n = 1), abscess (n = 1), and blood (n = 1).
(§6) The identity of S. aureus isolates was confirmed with conventional methods and with Pastorex Staph-Plus latex agglutination kit (Bio-Rad, Marnes-la-Coquette, France) and verified applying the polymerase chain reaction (PCR) of S. aureus-specific region of the thermonuclease gene, nuc. Resistance to methicillin was first verified using cefoxitin disk (30 µg), and then, identified based on the presence of mecA gene. S. aureus ATCC®25923 (methicillin-susceptible) and S. aureus ATCC®43300 (MDR) were applied as the reference strains. Both the reference and clinical strains were stored at −80 °C, in Tryptic Soy Broth (TSB, Becton-Dickinson, Franklin Lakes, NJ, USA) supplemented with 15% glycerol.
as §3

S.aureus 51 (MRSA) = experiment: Broth dilution MIC/MBC, clinical MRSA isolate; type: cell-based; conditions: Staphylococcus aureus, clinical MRSA S.aureus 51
Excerpt: as §4, §5, §6, §3

S.aureus 52 (MRSA) = experiment: Broth dilution MIC/MBC, clinical MRSA isolate; type: cell-based; conditions: Staphylococcus aureus, clinical MRSA S.aureus 52
Excerpt: as §4, §5, §6, §3

S.aureus 53 (MRSA) = experiment: Broth dilution MIC/MBC, clinical MRSA isolate; type: cell-based; conditions: Staphylococcus aureus, clinical MRSA S.aureus 53
Excerpt: as §4, §5, §6, §3

S.aureus 54 (MRSA) = experiment: Broth dilution MIC/MBC, clinical MRSA isolate; type: cell-based; conditions: Staphylococcus aureus, clinical MRSA S.aureus 54
Excerpt: as §4, §5, §6, §3

S.aureus 55 (MSSA) = experiment: Broth dilution MIC/MBC, clinical MSSA isolate; type: cell-based; conditions: Staphylococcus aureus, clinical MSSA S.aureus 55
Excerpt: as §4, §5, §6, §3

S.aureus 56 (MSSA) = experiment: Broth dilution MIC/MBC, clinical MSSA isolate; type: cell-based; conditions: Staphylococcus aureus, clinical MSSA S.aureus 56
Excerpt: as §4, §5, §6, §3

S.aureus 57 (MSSA) = experiment: Broth dilution MIC/MBC, clinical MSSA isolate; type: cell-based; conditions: Staphylococcus aureus, clinical MSSA S.aureus 57
Excerpt: as §4, §5, §6, §3

S.aureus 58 (MSSA) = experiment: Broth dilution MIC/MBC, clinical MSSA isolate; type: cell-based; conditions: Staphylococcus aureus, clinical MSSA S.aureus 58
Excerpt: as §4, §5, §6, §3

S.aureus 59 (MSSA) = experiment: Broth dilution MIC/MBC, clinical MSSA isolate; type: cell-based; conditions: Staphylococcus aureus, clinical MSSA S.aureus 59
Excerpt: as §4, §5, §6, §3

MRSA 51 biofilm = experiment: Biofilm inhibition assay (crystal violet); type: cell-based, Staphylococcus aureus; conditions: MRSA 51, 4 × MIC
Experimental: (§7) For many decades, S. aureus has been identified as the most common etiologic agent of device related infections, associated with biofilm formation. These infections are hard to cure because the specific structure of biofilm confers resistance to the host immune response and to the action of antibiotics.
(§8) Then, 100 µL bacterial suspension prepared from fresh overnight culture by diluting with TSB to obtain the initial inoculum 2 × 10^6 CFU/mL was added. The plates were incubated for 24 h at 37 °C. After the incubation, the wells were discarded and were gently rinsed three times with PBS to remove planktonic staphylococcal cells. Then, contents of the wells were discarded and the biofilm was fixed with 200 µL methanol for 20 min and dried at room temperature for 30 min. The biofilm was stained by adding 200 µL 1.8% crystal violet solution for 15 min. After staining, the plates were rinsed with water and 200 µL bleaching solution (30% ethanol, 30% glacial acetic acid, 40% water) added for 15 min to dissolve the remaining crystal violet. A microplater reader was used to measure the absorbance of the adherent biofilm at 570 nm (OD570). […] The negative control included only the growth medium.

MRSA 52 biofilm = experiment: Biofilm inhibition assay (crystal violet); type: cell-based, Staphylococcus aureus; conditions: MRSA 52, 4 × MIC
Experimental: as §7, §8

MSSA 58 biofilm = experiment: Biofilm inhibition assay (crystal violet); type: cell-based, Staphylococcus aureus
Experimental: as §7, §8

MSSA 59 biofilm = experiment: Biofilm inhibition assay (crystal violet); type: cell-based, Staphylococcus aureus; conditions: MSSA 59, 4 × MIC
Experimental: as §7, §8

[3] = system: HaCaT cell line (human keratinocyte); experiment: MTT cell viability assay; type: cell-based; conditions: MTT assay, 72 h incubation, mean ± SD, read-out: IC50 HaCaT

Cc1cc(S(=O)(=O)NC(=O)CCC2CCCCC2)c(SCc2cccc(C(F)(F)F)c2)cc1Cl [Compound 10, N-[4-Chloro-5-methyl-2-(3-trifluoromethylbenzylthio)benzenesulfonyl]-3-cyclohexylpropanamide]
MBC/MIC ([1]; S. a. ATCC 43300): 2
MBC ([1]; Staphylococcus aureus, S. aureus ATCC 43300, read-out: MBC): 16 µg/mL (≈ 30 µM)
MIC ([1]; Staphylococcus aureus, S. aureus ATCC 43300, read-out: MIC): 8 µg/mL (≈ 15 µM)
MBC/MIC ([2]; S. e. PCM 2118): 1
MBC ([2]; S. epidermidis PCM 2118): 8 µg/mL (≈ 15 µM)
MBC ([2]; Staphylococcus epidermidis, PCM2118, S. epidermidis PCM 2118, read-out: MBC): 4 to 16 µg/mL (≈ 7.49 to 30 µM)
MIC ([2]; Staphylococcus epidermidis, PCM2118, S. epidermidis PCM 2118, read-out: MIC): 8 µg/mL (≈ 15 µM)
MBC (S.aureus 50 (MRSA); read-out: MBC): > 128 µg/mL
MIC (S.aureus 50 (MRSA); read-out: MIC): 4 µg/mL (≈ 7.49 µM)
MBC (S.aureus 51 (MRSA); read-out: MBC): > 128 µg/mL
MIC (S.aureus 51 (MRSA); read-out: MIC): 4 µg/mL (≈ 7.49 µM)
MBC (S.aureus 52 (MRSA); read-out: MBC): > 128 µg/mL
MIC (S.aureus 52 (MRSA); read-out: MIC): 4 µg/mL (≈ 7.49 µM)
MBC (S.aureus 53 (MRSA); read-out: MBC): > 128 µg/mL
MIC (S.aureus 53 (MRSA); read-out: MIC): 4 µg/mL (≈ 7.49 µM)
MBC (S.aureus 54 (MRSA); read-out: MBC): > 128 µg/mL
MIC (S.aureus 54 (MRSA); read-out: MIC): 4 µg/mL (≈ 7.49 µM)
MBC (S.aureus 55 (MSSA); read-out: MBC): > 128 µg/mL
MIC (S.aureus 55 (MSSA); read-out: MIC): 4 µg/mL (≈ 7.49 µM)
MBC (S.aureus 56 (MSSA); read-out: MBC): > 128 µg/mL
MIC (S.aureus 56 (MSSA); read-out: MIC): 4 µg/mL (≈ 7.49 µM)
MBC (S.aureus 57 (MSSA); read-out: MBC): > 128 µg/mL
MIC (S.aureus 57 (MSSA); read-out: MIC): 4 µg/mL (≈ 7.49 µM)
MBC (S.aureus 58 (MSSA); read-out: MBC): > 128 µg/mL
MIC (S.aureus 58 (MSSA); read-out: MIC): 4 µg/mL (≈ 7.49 µM)
MBC (S.aureus 59 (MSSA); read-out: MBC): > 128 µg/mL
MIC (S.aureus 59 (MSSA); read-out: MIC): 4 µg/mL (≈ 7.49 µM)
inhibition of biofilm formation (MRSA 51 biofilm): 88–89%
inhibition of biofilm formation (MRSA 52 biofilm): 88–89%
inhibition of biofilm formation (MSSA 58 biofilm; MSSA 58, concentration equal to the MIC): about 91%
inhibition of biofilm formation (MSSA 58 biofilm; MSSA 58, ½ MIC (2 μg/mL)): 67%
inhibition of biofilm formation (MSSA 59 biofilm): 91%
IC50 [3]: 95 µg/mL and 178 µM
